From US11046679B2, “Indoleamine 2,3-dioxygenase inhibitor and application” (Nanjing TransThera Biosciences Co. Ltd., priority 2017, dated 2021) come the findings set out here.

One data set deals with Hela cell. Kind of data set: Hela cell evaluation method (cytological test, rhIFN-γ stimulated). It is filed as cell-based. To be noted: Hela cells with 50 ng/mL rhIFN-γ, incubated 48 hours, OD at 480 nm. As for the experimental part: Hela Cell Evaluation Method
(§1) Test Sample: Compounds Prepared in the Corresponding Examples of the Present Invention
Helacell strain (Purchased from ATCC, Cat. No. CCL-2, 4965442)
Recombinant Human IFN-γ (rhIFN-γ, Purchased from Peprotech, Cat. No. 300-02)
Cell plating: Hela cell suspension was prepared from fresh MEM cell culture medium, added to a 96-well cell culture plate at 5000 cells/well, and cultured at 5% carbon dioxide at 37° C. overnight.
Preparation of compound: The compound was formulated into 2 mM in DMSO, and the compound was diluted 5-fold in DMSO to obtain a compound dilution mother solution (200×) of 6 to 9 concentration gradients, and a 10× dilution solution was prepared in proportion with cell culture medium or liquid.
Dosing incubation: After the cells were plated overnight, 10 μL of the corresponding compound dilution mother solution (10×) and 10 μL of 500 ng/mL rhIFN-γ were added to each well, and the final volume of each well was 100 μL. The negative control wells contained 100 μL of 0.5% DMSO cell culture medium and Hela cells. 50 ng/mL of rhIFN-γ were filled into negative control wells, which are used as positive control. Background control wells contained 100 μL of cell culture medium. Incubation was performed for 48 hours in a 37° C. incubator and cell morphology was observed under an inverted microscope.
Detection: 80 μL of the supernatant was added to a Corning 3894 plate, and 10 μL of 6.1 N trichloroacetic acid was added to each well. The plate was shaken for 2 minutes, placed in a 50° C. incubator to react for 30 minutes, centrifuged at 2500 rpm for 10 minutes. 70 μL of the supernatant was transferred to a Corning 3635 UV plate, added with 70 μL of the reaction solution and the mixture was shaken for 2 minutes to make the reaction mixture uniform. The OD value at 480 nm was measured using EnSpire (PE).

The next data set has as its target T1, IDO1 (Homo sapiens, UniProt P14902).
T1 construct: purchased CP lot number: 20160706
Kind of data set: IDO1 enzymology evaluation method. The format is biochemical. Particulars: IDO-1 enzyme, dynamic OD at 321 nm, IC50 fitted with GraphPad Prism. As for the experimental part:
IDO1 Enzymology Evaluation Method
as §1
Preparation of compound: The compound was formulated into 1 mM compound mother liquor in DMSO, and the compound was diluted 3-fold in DMSO to obtain a compound concentration dilution mother solution (100×) of 9 concentration gradients.
Dosing inhibition: 2 μL of 100× compound dilution mother solution was added to a 96-well plate, added with 100 μL of enzyme solution (IDO-1), and incubated for 10 min at room temperature. 100% DMSO was used as a negative control and NLG-919 was used as a positive control. Incubation was performed with 100 μL of substrate mixture (L-tryptophan, ascorbate, methylene blue, and catalase).
Detection: Dynamic OD data at 321 nm was detected using Spectramax.
Calculation: The inhibition rate was calculated according to the following formula.
The curve slope was fitted using the Spectramax program, and IC50 was fitted using GraphPad Prism 5.0.

The nature of data set [1]: Rat PK evaluation of the compounds. It is filed as in vivo. To be noted: SD rats; for Cl_obs iv / Vz_obs iv / tz1/2 iv / tZ1/2 PO / bioavailability / AUC(0-inf): n = 3; for tZ1/2 PO: PO (intragastric) 5 mg/kg; for bioavailability / AUC(0-inf) / Tmax: Sprague-Dawley, rat, plasma; for Tmax: n = 3, median. As for the experimental part: Example 3: Rat PK Evaluation of the Compounds
Animal administration and sample collection: intragastric administration: Compounds 2 and 13 were dissolved in 10% DMA+10% (30% Solutol)+80% physiological saline to prepare a solution. Compound 15 was dissolved in 10% DMA+10% PEG400+80% physiological saline to prepare a solution. The SD rats were intragastrically administered at a dose of 5.0 mg/kg. The time of blood collection was: 15 min, 30 min, 1 h, 2 h, 4 h, 6 h, 8 h and 24 h.
Intravenous administration: Compounds 2 and 13 were dissolved in 10% DMA+10% (30% Solutol)+80% physiological saline to prepare a solution. Compound 15 was dissolved in 10% DMA+10% PEG400+80% physiological saline to prepare a solution. The SD rats were intravenous administered at a dose of 1 mg/kg. The time of blood collection was: 5 min, 15 min, 30 min, 1 h, 2 h, 4 h, 6 h, 8 h and 24 h.
The animals were fixed, the tail was heated in a water bath 10 min before each time point, and about 100 μL of blood was collected through the tail vein, and the blood was then placed in an anti-coagulation tube containing EDTA-K2. Blood samples were centrifuged at 8000 rpm for 6 min at 4° C. to obtain plasma samples, which must be prepared within 30 min of blood collection. The plasma samples were stored at −80° C. in a freezer before test.
Take the sample to be tested from the refrigerator (−80° C.), melted at room temperature and vortexed for 5 min. 20 μL of plasma sample was accurately pipetted into a 1.5 mL centrifuge tube; added with 200 μL of internal standard working solution at a concentration of 50 ng/mL and mixed well. The mixture was vortexed for 5 min (12000 rpm) and centrifuge for 5 min (12000 rpm). 50 μL of supernatant was accurately pipetted into 96-well plates pre-filled with 150 μL/well of water; vortexed for 5 min to mix well. The inject volume was 20 μL and LC-MS/MS was performed.
The concentration of the test sample was output by using Analyst 1.6.3 from AB. The mean, standard deviation, coefficient of variation and other parameters were calculated by Microsoft Excel (direct output from Analyst 1.6.3 is not calculated). PK parameters are calculated by using Pharsight Phoenix 6.1 software NCA (Tmax is the median).

The mark [2] stands for this setting: IV 1 mg/kg, read-out: AUCinf iv.
Setting [3] is: PO 5 mg/kg, read-out: AUCinf PO.

Like-named read-outs stand apart in the source and are kept apart here.

T1 sequence (P14902 whole entry, species assumed): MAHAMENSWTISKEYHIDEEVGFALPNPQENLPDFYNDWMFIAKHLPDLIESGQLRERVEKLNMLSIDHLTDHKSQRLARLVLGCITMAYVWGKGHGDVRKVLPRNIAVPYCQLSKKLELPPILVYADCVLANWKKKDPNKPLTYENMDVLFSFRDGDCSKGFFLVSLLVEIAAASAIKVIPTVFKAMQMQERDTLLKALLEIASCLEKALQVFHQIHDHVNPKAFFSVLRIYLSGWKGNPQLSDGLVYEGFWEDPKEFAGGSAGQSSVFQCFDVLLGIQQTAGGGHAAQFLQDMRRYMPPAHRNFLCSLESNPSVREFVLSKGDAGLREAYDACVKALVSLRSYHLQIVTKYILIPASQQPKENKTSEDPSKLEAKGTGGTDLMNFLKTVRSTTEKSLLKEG

For `O=S1(=O)CCC(Nc2nonc2C(=NO)Nc2ccc(F)c(Br)c2)C1` (single isomer, unassigned) [Compound 15-P2], the figures for the IC50 in the data set with Hela cell and against IDO1 were 119 nM and 240 nM, respectively.
In data set [1] (IV 1 mg/kg), `O=S1(=O)CCC(Nc2nonc2C(=NO)Nc2ccc(F)c(Br)c2)CC1` [Compound 2, N-(3-bromo-4-fluorophenyl)-4-((1,1-dioxotetrahydro-2H-thiopyran-4-yl)amino)-N′-hydroxy-1,2,5-oxadiazol-3-formamidine] displayed a Cl_obs iv of 32.8 mL/min/kg, a Vz_obs iv of 5.02 L/kg and a tz1/2 iv of 1.82 h. For the same compound, in data set [1], the “tZ1/2 PO” value is recorded as 3.81 h. The bioavailability in data set [1] (IV 1 mg/kg, PO 5 mg/kg) was found to be 62.2%. In addition, in data set [1] (setting [2]), the AUC(0-inf) was 521 ng·h/mL. In data set [1] (PO 5 mg/kg), the Tmax turned out to be 15 min. Besides, the AUC(0-inf) in data set [1] (setting [3]) came out at 1620 ng·h/mL. In addition, the IC50 in the data set on Hela cell (Homo sapiens, HeLa, 48 h) was 39.7 nM.
With `O=S1(=O)CCC(Nc2nonc2C(=NO)Nc2ccc(F)c(Br)c2)C1` (single isomer, unassigned) [Compound 15-P1], the IC50 amounted to 19.4 nM in the data set with Hela cell and 200 nM against IDO1.
As for `ON=C(Nc1ccc(F)c(Br)c1)c1nonc1NC1CC2(COC2)C1` [Compound 12, 4-((2-oxaspiro[3.3]heptan-6-yl)amino)-N-(3-bromo-4-fluorophenyl)-N′-hydroxy-1,2,5-oxadiazol-3-carboxamidine], in the data set on Hela cell (Homo sapiens, HeLa, 48 h), the 50% inhibitory concentration (IC50) is 105 nM.
The same measure, in the same setting: the result for `O=S1(=O)CC(Nc2nonc2C(=NO)Nc2ccc(F)c(Br)c2)C1` [Compound 26, N-(3-bromo-4-fluorophenyl)-4-((1,1-dioxothietan-3-yl)amino)-N′-hydroxy-1,2,5-oxadiazol-3-formamidine] reads 76 nM.
For the compound `CS(=O)(=O)N1CC2(CC(Nc3nonc3C(=NO)Nc3ccc(F)c(Br)c3)C2)C1` [Compound 16, N-(3-bromo-4-fluorophenyl)-N′-hydroxy-4-((2-(methylsulfonyl)-2-azaspiro[3.3]heptan-6-yl)amino)-1,2,5-oxadiazol-3-formamidine], the IC50 with Hela cell (Homo sapiens, HeLa, 48 h) worked out at 78.3 nM; at IDO1, 170 nM.
Take `CS(=O)(=O)N1CCC(Nc2nonc2C(=NO)Nc2ccc(F)c(Br)c2)CC1` [Compound 3, N-(3-bromo-4-fluorophenyl)-N′-hydroxy-4-((1-(methylsulfonyl)piperidin-4-yl)amino)-1,2,5-oxadiazol-3-formamidine]: in the data set with Hela cell (Homo sapiens, HeLa, 48 h), the midpoint of inhibition, the IC50, lay at 71 nM.
In data set [1] (IV 1 mg/kg), `O=S1(=O)CC2(CC(Nc3nonc3C(=NO)Nc3ccc(F)c(Br)c3)C2)C1` [Compound 13, N-(3-bromo-4-fluorophenyl)-4-((2,2-dioxo-2-thiaspiro[3.3]heptan-6-yl)amino)-N′-hydroxy-1,2,5-oxadiazol-3-formamidine] displayed a Cl_obs iv of 53.3 mL/min/kg, a Vz_obs iv of 9.00 L/kg and a tz1/2 iv of 2.00 h. Also, in data set [1], the “tZ1/2 PO” value worked out at 1.67 h. Besides, in data set [1] (IV 1 mg/kg, PO 5 mg/kg), the bioavailability is 36.9%. Besides, the AUC(0-inf) in data set [1] (setting [2]) was determined as 336 ng·h/mL. The Tmax in data set [1] (PO 5 mg/kg) is 15 min. Also, in data set [1] (setting [3]), the AUC(0-inf) came to 620 ng·h/mL. In the data set with Hela cell (Homo sapiens, HeLa, 48 h), this compound registered an IC50 of 68.6 nM. The compound also returned an IC50 against IDO1 of 220 nM.
In the data set with Hela cell (Homo sapiens, HeLa, 48 h), `ON=C(Nc1ccc(F)c(Br)c1)c1nonc1NC1CCOCC1` [Compound 1, N-(3-bromo-4-fluorophenyl)-N′-hydroxy-4-((tetrahydro-2H-pyran-4-yl)amino)-1,2,5-oxadiazol-3-formamidine] had an IC50 of 109 nM.
For `O=S1(=O)CCC(Nc2nonc2C(=NO)Nc2ccc(F)c(Br)c2)C1` (stereo not shown) [Compound 15, N-(3-bromo-4-fluorophenyl)-4-((1,1-dioxo-tetrahydrothiophen-3-yl)amino)-N′-hydroxy-1,2,5-oxadiazol-3-formamidine], in data set [1] (IV 1 mg/kg), the Cl_obs iv came out at 45.5 mL/min/kg, the Vz_obs iv came out at 4.03 L/kg and the tz1/2 iv is listed as 1.03 h. Moreover, in data set [1], the “tZ1/2 PO” value was found to be 3.40 h. The compound also yielded a bioavailability in data set [1] (IV 1 mg/kg, PO 5 mg/kg) of 28.1%. In data set [1] (setting [2]), the AUC(0-inf) is 367 ng·h/mL. The Tmax in data set [1] (PO 5 mg/kg) turned out to be 60 min. In data set [1] (setting [3]), the AUC(0-inf) came to 516 ng·h/mL. The IC50 in the data set with Hela cell (Homo sapiens, HeLa, 48 h) is 51.6 nM. Moreover, on IDO1, inhibition was half-maximal at 220 nM (IC50).
As for `NS(=O)(=O)N1CCC(Nc2nonc2C(=NO)Nc2ccc(F)c(Br)c2)CC1` [Compound 4], the IC50 in the data set on Hela cell (Homo sapiens, HeLa, 48 h) was 78.8 nM.
